The source of these data is patent publication US10456407B2, “Combination therapy for treating cancer” (Epizyme, Inc., priority 2015, dated 2019).

In one series the test system is RP-R-02LM ccRCC PDX. Format: in vivo. The note with it: tumors at primary site.
A further series relates to Toledo cells. The note with it: Toledo (WT EZH2 ABC); drug combined with Compound 44. The method, then:
(§1) After 3 days of co-treatment, cell viability was measured via ATP content using CellTiter-Glo®
(§2) Synergy quantification is performed using the Chou-Talalay method^3 for drug combination. The Combination Index (CI) equation offers a quantitative definition for additivity (CI=1), synergism (CI<1), and antagonism (CI>1). This equation used Fa values from a constant ratio of drug combination to determine CI values. […] These Fa-CI plots are generated using the Calcusyn software.
(§3) After 3 days of co-treatment (5 days for Toledo assays), cell viability was measured via ATP content using CellTiter-Glo® (Promega) and luminescence was detected using a SpectraMax M5 microplate reader (Molecular Devices).
(§4) Synergy quantification is performed using the Chou-Talalay method for drug combination (Ref 1). The Combination Index (CI) equation offers a quantitative definition for additivity (CI=1), synergism (CI<1), and antagonism (CI>1). This equation used fractional effect (Fa) values from a constant ratio of drug combination to determine CI values. […] These Fa-CI plots are generated using the Calcusyn for Windows software (Ref2).
(§5) Dose responses were plotted using Graphpad Prism and either 50% or 60% inhibitory concentrations were interpolated from the dose response curves.

The test system of another series is DOHH2 cells. The conditions noted are these: DOHH2 (WT EZH2 GCB); drug combined with Compound 44. As for the experimental part: as §1, §2, §3, §4, §5
Another series has as its system SU-DHL10 cells. The conditions noted are these: for growth inhibition by the drug by itself: SU-DHL10, single agent. The method, then:
as §1, §2, §3, §4, §5

The test system of the next series is WSU-DLCL2 cells. The conditions noted are these: for growth inhibition by the drug by itself: WSU-DLCL2, single agent. The method, then: as §1, §2, §3, §4, §5
The conditions of series [1]: due to its cardiotoxicity; cited from earlier work.
Series [2] has as its system EZH2 mutant lymphoma cell line. The series is described as follows: Combination assay with targeted therapies (pre-treatment model A, Calcusyn), EZH2 mutant lymphoma cell line. Type of series: cell-based. The conditions noted are these: pretreatment model A, combined with Compound 44. The text has this:
Statistically significant CI values for synergy are for example those CI value<1 with the confidence interval lines also below 1.
CI values<1 with confidence interval lines also below 1 indicate statistically significant synergism.

Where [3] appears, read: SU-DHL 10 (EZH2 mutant GCB), drug combined with Compound 44.
Where [4] appears, read: WSU-DLCL2 (EZH2 mutant GCB), drug combined with Compound 44.

Protocol for RP-R-02LM ccRCC PDX: Mice bearing human ccRCC patient derived xenograft (PDXs); RP-R-01, RP-R-02 and RP-R-02LM (a metastatic ccRCC model established from RP-R-02) were implanted into SCID mice. […] Tumors volumes and body weight were assessed once per week. Tumor tissues and lungs were collected for immunohistochemistry analysis. All assessments and quantification were done blindly.

In the case of `CCN(c1cc(C#CCN2CCOCC2)cc(C(=O)NCc2c(C)cc(C)[nH]c2=O)c1C)C1CCC(N(C)CCOC)CC1` (centres unmarked) [Compound B], the “cell proliferation (Ki67 stain)” value with RP-R-02LM ccRCC PDX is “Decreased cell proliferation”.
In the case of `C[C@@H]1C[C@H]2[C@@H]3CCC4=CC(=O)C=C[C@]4(C)[C@@]3(F)[C@@H](O)C[C@]2(C)[C@@]1(O)C(=O)CO` [Dexamethasone, dexamethasone], the “Summary of Combinations with Compound 44 (combination effect)” value (“Summary … (combination effect)” for short) with Toledo cells was “no effect”. The “Summary of Combinations with Compound 44: potency enhanced” value in the series with DOHH2 cells is “potency enhanced 4x”; in the series with SU-DHL10 cells (setting [3]), “potency enhanced 5x”; in the series on WSU-DLCL2 cells (setting [4]), 15x.
For the compound `COc1cccc2c1C(=O)c1c(O)c3c(c(O)c1C2=O)C[C@@](O)(C(=O)CO)C[C@@H]3O[C@H]1C[C@H](N)[C@H](O)[C@H](C)O1` [Doxurubicin, doxorubicin], the “Summary … (combination effect)” value in the series with Toledo cells was “no effect”; with DOHH2 cells it was “no effect”; with SU-DHL10 cells (setting [3]) it was “additive (Cl = 1 additive)”; in the series on WSU-DLCL2 cells (setting [4]), “synergy (Cl < 1 synergy)”. Moreover, the “growth inhibition by the drug by itself” value in the series on SU-DHL10 cells and in the series on WSU-DLCL2 cells was “concentration-dependent growth inhibition” throughout. Also, the “lifetime cumulative dosing limit” value in series [1] is on record as less than 550 mg/m^2.
In the case of `CC1(C)CCC(c2ccc(Cl)cc2)=C(CN2CCN(c3ccc(C(=O)NS(=O)(=O)c4ccc(N[C@H](CCN5CCOCC5)CSc5ccccc5)c(S(=O)(=O)C(F)(F)F)c4)cc3)CC2)C1` [Navitoclax], the “synergy in combination with Compound 44” value in series [2] was “Very strong synergy”.
As to `CC[C@]1(O)C[C@H]2CN(CCc3c([nH]c4ccccc34)[C@@](C(=O)OC)(c3cc4c(cc3OC)N(C=O)[C@H]3[C@@](O)(C(=O)OC)[C@H](OC(C)=O)[C@]5(CC)C=CCN6CC[C@]43[C@@H]65)C2)C1` [Vincristine, vincristine], the “Summary … (combination effect)” value in the series on Toledo cells is given as “no effect”; in the series with DOHH2 cells it was “no effect”; in the series with SU-DHL10 cells (setting [3]), “additive (Cl = 1 additive)”; with WSU-DLCL2 cells (setting [4]), “additive (Cl = 1 additive)”. In addition, the “growth inhibition by the drug by itself” value in the series on SU-DHL10 cells and in the series with WSU-DLCL2 cells was “concentration-dependent growth inhibition” in each case.
`CO[C@H]1C[C@@H]2CC[C@@H](C)[C@@](O)(O2)C(=O)C(=O)N2CCCC[C@H]2C(=O)O[C@H]([C@H](C)C[C@@H]2CC[C@@H](OCCO)[C@H](OC)C2)CC(=O)[C@H](C)/C=C(\C)[C@@H](O)[C@@H](OC)C(=O)[C@H](C)C[C@H](C)/C=C/C=C/C=C/1C` [everolimus]: in series [2], the “synergy in combination with Compound 44” value was “Very strong synergy”.
